Experiments:
A549 = experiment: Antiproliferative activity, resazurin assay, 72 h; type: cell-based, human
Procedure: (§1) Human cervix carcinoma (HeLa), Non-small lung adenocarcinoma (A549), Colon adenocarcinoma (HT29), and human triple negative breast cancer (MDA-MB-231) were cultured in Dulbecco’s modified Eagle’s media (DMEM). B-acute lymphoblastic leukemia (RS4;11 and SEM), T-acute lymphoblastic leukemia (Jurkat), and human promyelocytic cells (HL-60), were cultured in RPMI-1640 medium. Both media were purchased from Gibco, Life Technologies (Milan, Italy) and supplemented with 10% Fetal Bovine Serum (FBS, Invitrogen, Milan, Italy,). Every six months, each cell line was checked for the presence of mycoplasma by RT-PCR.
(§2) Stock solutions (10 mM) of the different compounds were made in DMSO. Cancer cells were seeded in tissue-treated, flat bottom, 384-well plates (Corning) according to their optimal density, (A549 1000 cells/wells; MDA-MB-231, HeLa and HT-29 2000 cells/well and finally Jurkat, HL-60 SEM and RS4;11 20.000 cells/well) in 27 µL of complete medium per well.
(§3) The day after cell seeding and immediately before cell treatment, 10 mM stock solutions of the compounds were pre-diluted to a […] concentration in 250 µL of Hank’s in a 96-well plate (Corning). Subsequent 1:5 dilutions were carried out using a microlab STAR 96-CORE liquid handling system (Hamilton), a robotized liquid handling tool that was employed for all steps, from cell seeding to drug dilution and cell treatment to ensure high reproducibility while reducing time for large screening execution. This pre-dilution step was necessary to avoid DMSO-related cytotoxicity and compound precipitation in the cell culture medium. In every case, DMSO concentration never exceeded 0.1%.
(§4) Positive (Bortezomib 1 µM) and negative (0.1% DMSO) controls were included in all the screened plates to allow for monitoring the Z’ factor throughout the entire screening. Cells were treated with 3 µL of the previously made dilutions; thus, generating a 6-point 5-fold dose–response curve starting from 10 µM. Within a plate, each drug concentration was tested in duplicate in two independent experiments for each compound.
(§5) Treated cells were then placed inside the CO2 incubator for 72 h at 37 °C. Cell viability was assessed by resazurin assay, in which 3 µL of resazurin per well were added using the previously described automated platform. Plates were placed in the incubator at 37 °C for 2 h, and then the fluorescence of each plate was read using a Spark 10 M multimode microplate reader (Tecan Group Ltd., Mannedorf, Switzerland) with 535 nm excitation wavelength and 600 nm emission wavelength.

HL-60 = experiment: Antiproliferative activity, resazurin assay, 72 h; type: cell-based, human
Procedure: as §1, §2, §3, §4, §5

HT29 = experiment: Antiproliferative activity, resazurin assay, 72 h; type: cell-based, human
Procedure: as §1, §2, §3, §4, §5

HeLa = experiment: Antiproliferative activity, resazurin assay, 72 h; type: cell-based, human
Procedure: as §1, §2, §3, §4, §5

Jurkat = experiment: Antiproliferative activity, resazurin assay, 72 h; type: cell-based, human
Procedure: as §1, §2, §3, §4, §5

MDA-MB-231 = experiment: Antiproliferative activity, resazurin assay, 72 h; type: cell-based, human
Procedure: as §1, §2, §3, §4, §5

RS 4;11 = experiment: Antiproliferative activity, resazurin assay, 72 h; type: cell-based, human
Procedure: as §1, §2, §3, §4, §5

SEM cells = experiment: Antiproliferative activity, resazurin assay, 72 h; type: cell-based, human
Procedure: as §1, §2, §3, §4, §5

[1] = Solubility as observed in the enzyme inhibition assays; type: physicochemical; set-up: key to solubility (footnote b): -: The compound was not soluble; settings: for solubility (footnote b): CK inhibition assay at 10 and 30 µM; for solubility (in words): IC50 could not be determined
CKα1 = biological target: T1, CKα1 (Homo sapiens, UniProt P35790); experiment: Choline kinase assay ([methyl-14C]choline into PCho, purified enzyme); type: biochemical; settings: for IC50: concentration required to inhibit CKα1 enzyme by 50%; for % Inhibition at 10 µM: purified CKα1, inhibitor 10 µM; for % Inhibition at 10 µM / % Inhibition at 30 µM: end-point assay; for % Inhibition at 30 µM: purified CKα1, inhibitor 30 µM
T1 construct: an N-terminally His-tagged truncated form of CKα1 (Δ75–457) was cloned into a pET-28a vector; His tag (N); made in house; host or cells: E. coli BL21 (DE3) Star
T1 sequence (P35790 75-457): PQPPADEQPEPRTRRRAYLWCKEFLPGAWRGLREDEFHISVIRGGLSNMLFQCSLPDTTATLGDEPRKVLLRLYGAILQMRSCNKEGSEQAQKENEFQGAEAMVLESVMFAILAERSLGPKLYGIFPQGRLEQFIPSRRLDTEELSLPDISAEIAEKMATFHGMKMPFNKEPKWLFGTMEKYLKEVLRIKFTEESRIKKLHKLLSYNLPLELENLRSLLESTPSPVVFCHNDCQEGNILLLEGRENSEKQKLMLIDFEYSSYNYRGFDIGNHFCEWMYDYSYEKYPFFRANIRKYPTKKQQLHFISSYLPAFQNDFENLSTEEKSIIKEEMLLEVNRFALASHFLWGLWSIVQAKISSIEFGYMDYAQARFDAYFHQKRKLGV
Procedure: The protein was produced and purified as previously described. Briefly, an N-terminally His-tagged truncated form of CKα1 (Δ75–457) was cloned into a pET-28a vector and expressed at 37 °C in E. coli BL21 (DE3) Star cells using 1 mM isopropyl β-D-1-thiogalactopyranoside (IPTG). After centrifugation, the cellular pellet was resuspended in 50 mM Tris-HCl pH 7.5, 500 mM NaCl, 0.2 mM phenylmethylsulphonyl fluoride (PMSF), DNase, and 0.5 mM β-mercaptoethanol, sonicated and subjected to a two-step purification procedure to isolate the target enzyme. […] Protein elution was completed using buffer A + 400 mM imidazole. A second size-exclusion chromatography step was then carried out to achieve complete purity. To this end, we used a HiPrep 26/60 Sephacryl 100 HR column (GE Healthcare, Little Chalfont, Buckinghamshire, UK) and a 20 mM Tris/HCl pH 7.5, 150 mM NaCl running buffer.
To study the effect of the compounds on CKα, an in vitro enzymatic assay was performed using the purified enzyme as previously reported in [19, 28, 29]. Briefly, the incorporation of ^14C from [methyl-^14C]choline into PCho in either the absence (control) or presence of different inhibitors at varying concentrations was used to determine the CK activity. The reaction mixture included 20 ng of purified CKα1, 10 mM ATP, 10 mM MgCl2, 100 mM Tris-HCl pH 8.5, and increasing concentrations of compounds. The mixture was preincubated at 37 °C for 5 min. Then, [methyl-^14C]choline chloride (1 mM, 4500 dpm/nmol) was added and the reaction was left to proceed for 10 min at 37 °C. The assay was stopped by immersing the reaction tubes in boiling water. PCho was separated by Thin Layer Chromatography using methanol/0.6% NaCl/28% NH4OH in water (50:50:5, v/v/v) as solvent. The radioactivity associated into PCho was determined in a Beckman 6000-TA (Madrid, Spain) liquid scintillation counter. The 50% inhibitory concentrations (IC50 values) were determined from the % enzyme activity at different concentrations of synthetic inhibitors relative to the control by using a sigmoidal dose–response curve (ED50plus v1.0 software).

Structure (SMILES) | GI50 (A549) [nM] | GI50 (HL-60) [nM] | GI50 (HT29) [nM] | GI50 (HeLa) [nM] | GI50 (Jurkat) [nM] | GI50 (MDA-MB-231) [nM] | GI50 (RS 4;11) [nM] | GI50 (SEM cells) [nM] | solubility (footnote b) [1] | solubility (in words) [1] | IC50 (CKα1) [nM] | % Inhibition at 10 µM (CKα1) [%] | % Inhibition at 30 µM (CKα1) [%]
[Br-].[Br-].c1cc2c(s1)c(N1CCCCCC1)nc[n+]2Cc1ccc(CCc2ccc(C[n+]3cnc(N4CCCCCC4)c4sccc43)cc2)cc1 [Fa-23] | 600 ± 60 | 510 ± 50 | 1560 ± 200 | 1170 ± 100 | 6150 ± 600 | 1130 ± 200 | 2080 ± 30 | 2170 ± 20 | - ^b | insolubility |  |  | 
[Br-].[Br-].c1cc2c(s1)c(N1CCCCC1)nc[n+]2Cc1ccc(CCc2ccc(C[n+]3cnc(N4CCCCC4)c4sccc43)cc2)cc1 [Fa-25] | 280 ± 20 | 140 ± 10 | 1470 ± 60 | 620 ± 20 | 5480 ± 500 | 330 ± 20 | 1840 ± 100 | 2530 ± 30 | - ^b | insolubility |  |  | 
[Br-].[Br-].c1cc2c(s1)c(N1CCCC1)cc[n+]2Cc1ccc(CCc2ccc(C[n+]3ccc(N4CCCC4)c4sccc43)cc2)cc1 [Fg-11] | 390 ± 40 | 470 ± 30 | 3650 ± 500 | 2190 ± 300 | 8530 ± 1100 | 680 ± 70 | 5720 ± 500 | > 10000 |  |  | 2330 ± 200 | 93.07 | 94.25
[Br-].[Br-].c1cc2c(N3CCCC3)nc[n+](Cc3ccc(-c4ccc(C[n+]5cnc(N6CCCC6)c6ccsc65)cc4)cc3)c2s1 [Fg-14] | 280 ± 20 | 1350 ± 100 | 4160 ± 1000 | 2530 ± 800 | > 10000 | 940 ± 90 | > 10000 | > 10000 |  |  | 4870 ± 570 | 80.28 | 94.14
[Br-].[Br-].c1cc2c(N3CCCC3)nc[n+](Cc3ccc(CCc4ccc(C[n+]5cnc(N6CCCC6)c6ccsc65)cc4)cc3)c2s1 [Fg-15] | 220 ± 30 | 130 ± 10 | 2010 ± 30 | 1000 ± 100 | > 10000 | 260 ± 20 | 3710 ± 40 | > 10000 |  |  | ≥ 5000 | 71.11 | 81.29
[Br-].[Br-].c1cc2c(s1)c(N1CCCC1)nc[n+]2Cc1ccc(CCc2ccc(C[n+]3cnc(N4CCCC4)c4sccc43)cc2)cc1 [Fg-16] | 250 ± 20 | 210 ± 30 | 2640 ± 60 | 670 ± 20 | > 10000 | 380 ± 10 | 7270 ± 800 | > 10000 |  |  | 1810 ± 170 | 80.28 | 85.87
[Br-].[Br-].c1cc2c(N3CCCCCC3)nc[n+](Cc3ccc(-c4ccc(C[n+]5cnc(N6CCCCCC6)c6ccsc65)cc4)cc3)c2s1 [Fg-18] | 210 ± 10 | 790 ± 20 | 2320 ± 20 | 1810 ± 20 | 7040 ± 800 | 610 ± 30 | 2650 ± 40 | > 10000 | - ^b |  |  |  | 
[Br-].[Br-].c1cc2c(N3CCCCCC3)nc[n+](Cc3ccc(CCc4ccc(C[n+]5cnc(N6CCCCCC6)c6ccsc65)cc4)cc3)c2s1 [Fg-19] | 310 ± 40 | 150 ± 10 | 1420 ± 100 | 780 ± 20 | 4720 ± 600 | 500 ± 20 | 1510 ± 200 | 2590 ± 30 | - ^b | insolubility |  |  | 
[Br-].[Br-].c1cc2c(N3CCCCC3)nc[n+](Cc3ccc(CCc4ccc(C[n+]5cnc(N6CCCCC6)c6ccsc65)cc4)cc3)c2s1 [Fg-31] | 1170 ± 10 | 760 ± 50 | 4500 ± 400 | 1400 ± 20 | > 10000 | 1090 ± 100 | 7200 ± 1000 | > 10000 |  |  | ≥ 10000 | 51.54 | 74.39
CN(c1ccccc1)c1nc[n+](Cc2ccc(-c3ccc(C[n+]4cnc(N(C)c5ccccc5)c5sccc54)cc3)cc2)c2ccsc12 [Fp-1] | 210 ± 20 | 510 ± 50 | 1430 ± 30 | 1660 ± 10 | > 10000 | 900 ± 20 | 2120 ± 200 | 4550 ± 500 |  |  | 1060 ± 220 |  | 

Reference: publication PMC9032693, “Biological Evaluation of New Thienopyridinium and Thienopyrimidinium Derivatives as Human Choline Kinase Inhibitors” (Pharmaceutics, 2022)
